Data: PMC6590088 (Science signaling, 2010)
Non-standard residues stand in square brackets, D forms with d. No end group written: not given here. pY = N[C@@H](Cc1ccc(OP(=O)(O)O)cc1)C(=O)O

Experiments:
[1] = molecular target: T1, BRDG1 SH2 domain (WT) (Homo sapiens, UniProt Q9ULZ2); test: Fluorescence polarization binding assay, wild-type BRDG1 SH2 domain; details: table S2B
T1 sequence (Q9ULZ2 177-280 limits assumed): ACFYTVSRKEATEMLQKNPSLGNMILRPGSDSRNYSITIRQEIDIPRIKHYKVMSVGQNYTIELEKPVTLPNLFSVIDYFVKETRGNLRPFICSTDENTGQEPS

[2] = test system: BKS SH2 domain; test: Peptide-binding experiments, BKS SH2 domain; details: table S2B
[3] = molecular target: NTAL pTyr136 peptide with Leu+4 replaced by Ala (human); test: fluorescence polarisation
[4] = molecular target: T2, BRDG1 SH2 domain (Asp167-Ser285) C269A (human, UniProt Q9ULZ2 167-285, C269A); test: crystal structure
T2 sequence (looked up): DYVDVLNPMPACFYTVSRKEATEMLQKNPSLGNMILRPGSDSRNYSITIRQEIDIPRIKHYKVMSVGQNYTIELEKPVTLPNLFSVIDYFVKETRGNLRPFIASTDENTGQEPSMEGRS

NSpY^136ENVLICK [NTAL-pTyr^136]
affinity for the BRDG1 SH2 domain (in words) [1]: high affinities
binding to the BKS SH2 domain (in words) [2]: bound strongly

B1: BRDG1 SH2 domain, wild type (fluorescence polarization) (domain or fragment)
chain: T1 sequence (Q9ULZ2 177-280 limits assumed)
fold reduction in affinity relative to the wild-type NTAL peptide [3]: 12 fold

B2: NTAL phosphopeptide ANSpY136ENVLIAK-NH2 (peptide)
peptide: ANS[pY]ENVLIAK-NH2
modifications: N-terminus assumed
SMILES: CC[C@H](C)[C@H](NC(=O)[C@H](CC(C)C)NC(=O)[C@@H](NC(=O)[C@H](CC(N)=O)NC(=O)[C@H](CCC(=O)O)NC(=O)[C@H](Cc1ccc(OP(=O)(O)O)cc1)NC(=O)[C@H](CO)NC(=O)[C@H](CC(N)=O)NC(=O)[C@H](C)N)C(C)C)C(=O)N[C@@H](C)C(=O)N[C@@H](CCCCN)C(N)=O
binding result [4]: binds
